Results reported in PMC9481151, “Discovery of new symmetrical and asymmetrical nitrile-containing 1,4-dihydropyridine derivatives as dual kinases and P-glycoprotein inhibitors: synthesis, in vitro assays, and in silico studies” (Journal of Enzyme Inhibition and Medicinal Chemistry, 2022).
Values joined by “and” are separate entries in the source; they are usually repeats but may differ in a detail not shown here. Equal entries are not always repeated.

Legend:
SF-539 = assay: NCI single dose (10 µM) SRB screen; format: cell-based, human; conditions: CNS cancer, 48 h
SN12C = assay: NCI single dose (10 µM) SRB screen; format: cell-based, human; conditions: renal cancer, 48 h
OVCAR-5 = assay: NCI single dose (10 µM) SRB screen; format: cell-based, human; conditions: ovarian cancer, 48 h
Aspergillus flavus = assay: Agar well diffusion method
OVCAR-3 = assay: NCI single dose (10 µM) SRB screen; format: cell-based, human; conditions: ovarian cancer, 48 h
NCI-H460 = assay: NCI single dose (10 µM) SRB screen; format: cell-based, human; conditions: non-small cell lung cancer, 48 h
MALME-3M = assay: NCI single dose (10 µM) SRB screen; format: cell-based, human; conditions: melanoma, 48 h
NCI-H226 = assay: NCI single dose (10 µM) SRB screen; format: cell-based, human; conditions: non-small cell lung cancer, 48 h
COLO 205 = assay: NCI single dose (10 µM) SRB screen; format: cell-based, human; conditions: colon cancer, 48 h
HS578T = assay: NCI single dose (10 µM) SRB screen; format: cell-based, human; conditions: breast cancer, 48 h
IGROV1 = assay: NCI single dose (10 µM) SRB screen; format: cell-based, human; conditions: ovarian cancer, 48 h
CAKI-1 = assay: NCI single dose (10 µM) SRB screen; format: cell-based, human; conditions: renal cancer, 48 h
UACC-257 = assay: NCI single dose (10 µM) SRB screen; format: cell-based, human; conditions: melanoma, 48 h
HCC-2998 = assay: NCI single dose (10 µM) SRB screen; format: cell-based, human; conditions: colon cancer, 48 h
HOP-92 = assay: NCI single dose (10 µM) SRB screen; format: cell-based, human; conditions: non-small cell lung cancer, 48 h
NCI-H322M = assay: NCI single dose (10 µM) SRB screen; format: cell-based; conditions: non-small cell lung cancer, 48 h
SR = assay: NCI single dose (10 µM) SRB screen; format: cell-based, human; conditions: leukaemia, 48 h
HT29 = assay: NCI single dose (10 µM) SRB screen; format: cell-based, human; conditions: colon cancer, 48 h
HCT-15 = assay: NCI single dose (10 µM) SRB screen; format: cell-based, human; conditions: colon cancer, 48 h
HCT-116 = assay: NCI single dose (10 µM) SRB screen; format: cell-based, human; conditions: colon cancer, 48 h
MDA-MB-231 = assay: NCI single dose (10 µM) SRB screen; format: cell-based, human; conditions: breast cancer, 48 h
DU-145 = assay: NCI single dose (10 µM) SRB screen; format: cell-based, human; conditions: prostate cancer, 48 h
KM12 = assay: NCI single dose (10 µM) SRB screen; format: cell-based, human; conditions: colon cancer, 48 h
NCI-H522 = assay: NCI single dose (10 µM) SRB screen; format: cell-based, human; conditions: non-small cell lung cancer, 48 h
A498 = assay: NCI single dose (10 µM) SRB screen; format: cell-based, human; conditions: renal cancer, 48 h
MOLT-4 = assay: NCI single dose (10 µM) SRB screen; format: cell-based, human; conditions: leukaemia, 48 h
NCI/ADR-RES = assay: NCI single dose (10 µM) SRB screen; format: cell-based, human; conditions: ovarian cancer, 48 h
NCI 60 cancer cell lines = assay: NCI single dose (10 µM) SRB screen, mean over panel; format: cell-based, human; conditions: mean over 60 cell lines, 48 h
U251 = assay: NCI single dose (10 µM) SRB screen; format: cell-based, human; conditions: CNS cancer, 48 h
MDA-MB-468 = assay: NCI single dose (10 µM) SRB screen; format: cell-based, human; conditions: breast cancer, 48 h
SNB-19 = assay: NCI single dose (10 µM) SRB screen; format: cell-based, human; conditions: CNS cancer, 48 h
EKVX = assay: NCI single dose (10 µM) SRB screen; format: cell-based, human; conditions: non-small cell lung cancer, 48 h
OVCAR-8 = assay: NCI single dose (10 µM) SRB screen; format: cell-based, human; conditions: ovarian cancer, 48 h
K-562 = assay: NCI single dose (10 µM) SRB screen; format: cell-based, human; conditions: leukaemia, 48 h
OVCAR-4 = assay: NCI single dose (10 µM) SRB screen; format: cell-based, human; conditions: ovarian cancer, 48 h
TK-10 = assay: NCI single dose (10 µM) SRB screen; format: cell-based, human; conditions: renal cancer, 48 h
NCI-H23 = assay: NCI single dose (10 µM) SRB screen; format: cell-based, human; conditions: non-small cell lung cancer, 48 h
786-0 = assay: NCI single dose (10 µM) SRB screen; format: cell-based, human; conditions: renal cancer, 48 h
T-47D = assay: NCI single dose (10 µM) SRB screen; format: cell-based, human; conditions: breast cancer, 48 h
RXF 393 = assay: NCI single dose (10 µM) SRB screen; format: cell-based, human; conditions: renal cancer, 48 h
MCF7 = assay: NCI single dose (10 µM) SRB screen; format: cell-based, human; conditions: breast cancer, 48 h
SK-MEL-5 = assay: NCI single dose (10 µM) SRB screen; format: cell-based, human; conditions: melanoma, 48 h
PC-3 = assay: NCI single dose (10 µM) SRB screen; format: cell-based, human; conditions: prostate cancer, 48 h
ACHN = assay: NCI single dose (10 µM) SRB screen; format: cell-based, human; conditions: renal cancer, 48 h
UACC-62 = assay: NCI single dose (10 µM) SRB screen; format: cell-based, human; conditions: melanoma, 48 h
Escherichia coli = assay: Agar well diffusion method
UO-31 = assay: NCI single dose (10 µM) SRB screen; format: cell-based, human; conditions: renal cancer, 48 h
LOX IMVI = assay: NCI single dose (10 µM) SRB screen; format: cell-based, human; conditions: melanoma, 48 h
M14 = assay: NCI single dose (10 µM) SRB screen; format: cell-based, human; conditions: melanoma, 48 h
SW-620 = assay: NCI single dose (10 µM) SRB screen; format: cell-based, human; conditions: colon cancer, 48 h
SF-268 = assay: NCI single dose (10 µM) SRB screen; format: cell-based, human; conditions: CNS cancer, 48 h
SK-MEL-2 = assay: NCI single dose (10 µM) SRB screen; format: cell-based, human; conditions: melanoma, 48 h
Candida albicans = assay: Agar well diffusion method

In the case of `CCOC(=O)C1=C(C)NC(C)=C(C(=O)OC(C)(C)C)C1c1cccc(C#N)c1` (racemic) [Compound 2j, (±)-3-Tert-butyl 5-ethyl 4-(3-cyanophenyl)-2,6-dimethyl-1,4-dihydropyridine-3,5-dicarboxylate], the “GI% SF-539” value (SF-539) is reported as “– (Only GI% ≥ 10 are shown)”, the “GI% SN12C” value (SN12C) is reported as “– (Only GI% ≥ 10 are shown)” and the “GI% OVCAR-5” value (OVCAR-5) is reported as “– (Only GI% ≥ 10 are shown)”. For the same molecule, the zone of inhibition at 1000 µg/mL (Aspergillus flavus; Aspergillus flavus, 24 h, read-out: Diameter of inhibition zone, A. flavus) was 20 mm, the “% activity index, A. flavus” value (Aspergillus flavus; relative to clotrimazole) was 80% and the “GI% OVCAR-3” value (OVCAR-3) was “– (Only GI% ≥ 10 are shown)”. The “GI% NCI-H460” value (NCI-H460) was “– (Only GI% ≥ 10 are shown)”, the “GI% MALME-3M” value (MALME-3M) was “– (Only GI% ≥ 10 are shown)” and the “GI% NCI-H226” value (NCI-H226) was “– (Only GI% ≥ 10 are shown)”. The “GI% COLO 205” value (COLO 205) was “– (Only GI% ≥ 10 are shown)”, the “GI% HS578T” value (HS578T) was “– (Only GI% ≥ 10 are shown)” and the “GI% IGROV1” value (IGROV1) was “– (Only GI% ≥ 10 are shown)”. For the same molecule, the “GI% CAKI-1” value (CAKI-1) was 17%, the “GI% UACC-257” value (UACC-257) was “– (Only GI% ≥ 10 are shown)” and the “GI% HCC-2998” value (HCC-2998) was “– (Only GI% ≥ 10 are shown)”. For the same molecule, the “GI% HOP-92” value (HOP-92) was “– (Only GI% ≥ 10 are shown)”, the “GI% NCI-H322M” value (NCI-H322M) was “– (Only GI% ≥ 10 are shown)” and the “GI% SR” value (SR) was 22%. The “GI% HT29” value (HT29) was “– (Only GI% ≥ 10 are shown)”, the “GI% HCT-15” value (HCT-15) was “– (Only GI% ≥ 10 are shown)” and the “GI% HCT-116” value (HCT-116) was 13%. For the same molecule, the “GI% MDA-MB-231” value (MDA-MB-231) was “– (Only GI% ≥ 10 are shown)”, the “GI% DU-145” value (DU-145) was “– (Only GI% ≥ 10 are shown)” and the “GI% KM12” value (KM12) was “– (Only GI% ≥ 10 are shown)”. For the same molecule, the “GI% NCI-H522” value (NCI-H522) was 13%, the “GI% A498” value (A498) was “– (Only GI% ≥ 10 are shown)” and the “GI% MOLT-4” value (MOLT-4) was 17%. For the same molecule, the “GI% NCI/ADR-RES” value (NCI/ADR-RES) was 10%, the “Mean GI%” value (NCI 60 cancer cell lines) was 4% and the “GI% U251” value (U251) was “– (Only GI% ≥ 10 are shown)”. The “GI% MDA-MB-468” value (MDA-MB-468) was 10%, the “GI% SNB-19” value (SNB-19) was “– (Only GI% ≥ 10 are shown)” and the “GI% EKVX” value (EKVX) was 10%. For the same molecule, the “GI% OVCAR-8” value (OVCAR-8) was “– (Only GI% ≥ 10 are shown)”, the “GI% K-562” value (K-562) was 17% and the “GI% OVCAR-4” value (OVCAR-4) was “– (Only GI% ≥ 10 are shown)”. The “GI% TK-10” value (TK-10) was “– (Only GI% ≥ 10 are shown)”, the “GI% NCI-H23” value (NCI-H23) was “– (Only GI% ≥ 10 are shown)” and the “GI% 786-0” value (786-0) was 13%. The “GI% T-47D” value (T-47D) was “– (Only GI% ≥ 10 are shown)”, the “GI% RXF 393” value (RXF 393) was “– (Only GI% ≥ 10 are shown)” and the “GI% MCF7” value (MCF7) was “– (Only GI% ≥ 10 are shown)”. The “GI% SK-MEL-5” value (SK-MEL-5) was “– (Only GI% ≥ 10 are shown)”, the “GI% PC-3” value (PC-3) was 18% and the “GI% ACHN” value (ACHN) was “– (Only GI% ≥ 10 are shown)”. The “GI% UACC-62” value (UACC-62) was 10%, the zone of inhibition at 1000 µg/mL (Escherichia coli; Escherichia coli, 24 h, read-out: Diameter of inhibition zone, E. coli) was 18 mm and the “% activity index, E. coli” value (Escherichia coli; relative to ciprofloxacin) was 69% and 69.2%. The “GI% UO-31” value (UO-31) was “– (Only GI% ≥ 10 are shown)”, the “GI% LOX IMVI” value (LOX IMVI) was “– (Only GI% ≥ 10 are shown)” and the “GI% M14” value (M14) was “– (Only GI% ≥ 10 are shown)”. The “GI% SW-620” value (SW-620) was “– (Only GI% ≥ 10 are shown)”, the “GI% SF-268” value (SF-268) was “– (Only GI% ≥ 10 are shown)” and the “GI% SK-MEL-2” value (SK-MEL-2) was “– (Only GI% ≥ 10 are shown)”. The zone of inhibition at 1000 µg/mL (Candida albicans; Candida albicans, 24 h, read-out: Diameter of inhibition zone, C. albicans) was 19 mm and the “% activity index, C. albicans” value (Candida albicans; relative to clotrimazole) was 70% and 70.4%.
